Assay results taken from patent US20250101023A1, “HETEROARYL DERIVATIVE AND USES THEREOF” (IUCF-HYU (INDUSTRY-UNIVERSITY COOPERATION FOUNDATION …, priority 2022, published 2025).

Assays:
CDK7/cyclin H = CDK7/cyclin H (Homo sapiens (Human), UniProt P50613); test: Kinome-wide profiling; type: biochemical; details: read-out: % Residual Activity (mean)
CYP2C19 = CYP2C19 (Homo sapiens (Human), UniProt P33261); test: CYP inhibitory activity; type: in vitro ADME; details: read-out: CYP % activity at 10 μM concentration 2C19
Sequence of CYP2C19 (P33261 whole entry): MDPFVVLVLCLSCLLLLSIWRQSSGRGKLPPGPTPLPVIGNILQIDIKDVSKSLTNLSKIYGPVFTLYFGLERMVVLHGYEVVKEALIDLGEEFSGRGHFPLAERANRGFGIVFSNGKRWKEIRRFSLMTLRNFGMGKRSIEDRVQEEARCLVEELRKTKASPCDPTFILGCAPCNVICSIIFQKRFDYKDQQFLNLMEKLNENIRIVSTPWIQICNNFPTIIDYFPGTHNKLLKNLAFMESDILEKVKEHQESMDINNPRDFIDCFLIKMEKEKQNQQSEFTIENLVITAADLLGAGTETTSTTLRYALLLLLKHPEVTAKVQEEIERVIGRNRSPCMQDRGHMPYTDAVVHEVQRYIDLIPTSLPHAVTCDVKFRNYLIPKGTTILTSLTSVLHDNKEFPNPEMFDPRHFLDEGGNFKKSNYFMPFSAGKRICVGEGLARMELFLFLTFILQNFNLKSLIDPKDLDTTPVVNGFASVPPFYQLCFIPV
Procedure: 5 derivatives were evaluated for in vitro metabolic stability in liver microsomes from three different species (human, dog, mouse) and for inhibitory activity against 5 representative cytochrome P450 enzymes (CYPs)(Table 3). In terms of liver microsomal stability, the 2′-pyridyl group is more suitable than the α-methyl-4′-pyridyl group as the terminal aromatic group at position 6, and the aminopyrimidyl group is better than the aminopyridyl group as a substituent at position 2.

PKN3/PRK3 = PKN3/PRK3 (Homo sapiens (Human), UniProt Q6P5Z2); test: Kinome-wide profiling; type: biochemical; details: read-out: % Residual Activity (mean)
P38a/MAPK14 = P38a/MAPK14 (Homo sapiens (Human), UniProt Q16539); test: Kinome-wide profiling; type: biochemical; details: read-out: % Residual Activity (mean)
Sequence of P38a/MAPK14 (Q16539 whole entry): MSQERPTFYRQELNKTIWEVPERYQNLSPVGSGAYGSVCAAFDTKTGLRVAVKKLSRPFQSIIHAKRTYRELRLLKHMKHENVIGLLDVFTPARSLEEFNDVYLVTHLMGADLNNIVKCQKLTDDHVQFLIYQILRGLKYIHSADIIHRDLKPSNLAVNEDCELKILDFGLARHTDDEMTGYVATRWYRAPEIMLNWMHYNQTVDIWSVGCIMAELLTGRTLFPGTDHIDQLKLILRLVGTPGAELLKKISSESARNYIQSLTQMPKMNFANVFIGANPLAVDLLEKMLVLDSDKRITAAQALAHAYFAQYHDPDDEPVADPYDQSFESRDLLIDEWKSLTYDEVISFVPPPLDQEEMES

RIPK5 = RIPK5 (Homo sapiens (Human), UniProt Q6XUX3); test: Kinome-wide profiling; type: biochemical; details: read-out: % Residual Activity (mean)
RSK4 = RSK4 (Homo sapiens (Human), UniProt Q9UK32); test: Kinome-wide profiling; type: biochemical; details: read-out: % Residual Activity (mean)
TRKC = TRKC (Homo sapiens (Human), UniProt Q16288); test: Kinome-wide profiling; type: biochemical; details: read-out: % Residual Activity (mean)
CDK9/cyclin T2 = CDK9/cyclin T2 (Homo sapiens (Human), UniProt P50750); test: Kinome-wide profiling; type: biochemical; details: read-out: % Residual Activity (mean)
CDK5/P25 = CDK5/P25 (Homo sapiens (Human), UniProt Q00535); test: Kinome-wide profiling; type: biochemical; details: read-out: % Residual Activity (mean)
Sequence of CDK5/P25 (Q00535 whole entry): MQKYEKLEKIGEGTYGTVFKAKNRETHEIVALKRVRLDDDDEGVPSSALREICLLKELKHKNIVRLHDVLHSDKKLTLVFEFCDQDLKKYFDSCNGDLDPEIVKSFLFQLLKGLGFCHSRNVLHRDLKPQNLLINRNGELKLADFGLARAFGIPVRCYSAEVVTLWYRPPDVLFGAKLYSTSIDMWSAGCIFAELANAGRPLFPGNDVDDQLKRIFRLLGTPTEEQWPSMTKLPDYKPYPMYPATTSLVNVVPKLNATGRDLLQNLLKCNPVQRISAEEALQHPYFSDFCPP
Sequence of CDK5/P25 (Q15078 99-307 partner): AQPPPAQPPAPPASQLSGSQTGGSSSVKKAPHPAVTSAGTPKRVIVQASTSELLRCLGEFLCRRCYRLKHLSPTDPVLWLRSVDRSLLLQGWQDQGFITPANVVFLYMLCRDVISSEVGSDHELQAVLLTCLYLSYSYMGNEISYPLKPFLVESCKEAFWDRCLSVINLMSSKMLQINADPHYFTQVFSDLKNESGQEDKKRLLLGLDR

FGR = FGR (Homo sapiens (Human), UniProt P09769); test: Kinome-wide profiling; type: biochemical; details: read-out: % Residual Activity (mean)
RIPK4 = RIPK4 (Homo sapiens (Human), UniProt P57078); test: Kinome-wide profiling; type: biochemical; details: read-out: % Residual Activity (mean)
STK33 = STK33 (Homo sapiens (Human), UniProt Q9BYT3); test: Kinome-wide profiling; type: biochemical; details: read-out: % Residual Activity (mean)
CDK14/cyclin Y (PFTK1) = CDK14/cyclin Y (PFTK1) (Homo sapiens (Human), UniProt O94921); test: Kinome-wide profiling; type: biochemical; details: read-out: % Residual Activity (mean)
Sequence of CDK14/cyclin Y (PFTK1) (O94921 whole entry): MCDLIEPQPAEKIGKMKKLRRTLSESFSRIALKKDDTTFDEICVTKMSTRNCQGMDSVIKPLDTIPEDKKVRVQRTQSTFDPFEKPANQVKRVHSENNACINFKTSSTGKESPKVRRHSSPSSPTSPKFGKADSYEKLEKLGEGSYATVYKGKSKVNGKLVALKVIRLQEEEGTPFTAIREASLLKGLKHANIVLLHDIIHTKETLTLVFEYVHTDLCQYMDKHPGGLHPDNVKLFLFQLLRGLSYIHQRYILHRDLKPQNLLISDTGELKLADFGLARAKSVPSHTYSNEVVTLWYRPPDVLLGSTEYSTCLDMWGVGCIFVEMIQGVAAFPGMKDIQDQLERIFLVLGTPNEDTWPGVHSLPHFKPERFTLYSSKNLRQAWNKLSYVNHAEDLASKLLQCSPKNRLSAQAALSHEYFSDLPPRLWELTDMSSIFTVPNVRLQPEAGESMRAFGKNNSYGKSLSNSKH
Sequence of CDK14/cyclin Y (PFTK1) (Q8ND76 whole entry partner): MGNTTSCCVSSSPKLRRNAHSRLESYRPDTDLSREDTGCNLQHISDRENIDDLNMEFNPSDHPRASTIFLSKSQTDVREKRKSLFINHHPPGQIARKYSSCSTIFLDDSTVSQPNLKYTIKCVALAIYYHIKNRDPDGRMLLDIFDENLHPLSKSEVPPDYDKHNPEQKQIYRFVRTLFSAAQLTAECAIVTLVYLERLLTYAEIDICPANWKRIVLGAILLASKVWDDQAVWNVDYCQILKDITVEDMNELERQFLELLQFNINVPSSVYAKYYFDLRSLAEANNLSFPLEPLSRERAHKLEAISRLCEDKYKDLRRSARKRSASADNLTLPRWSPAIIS

PDGFRb = PDGFRb (Homo sapiens (Human), UniProt P09619); test: Kinome-wide profiling; type: biochemical; details: read-out: % Residual Activity (mean)
PDGFRa = PDGFRa (Homo sapiens (Human), UniProt P16234); test: Kinome-wide profiling; type: biochemical; details: read-out: % Residual Activity (mean)
FLT4/VEGFR3 = FLT4/VEGFR3 (Homo sapiens (Human), UniProt P35916); test: Kinome-wide profiling; type: biochemical; details: read-out: % Residual Activity (mean)
Sequence of FLT4/VEGFR3 (P35916 25-1363): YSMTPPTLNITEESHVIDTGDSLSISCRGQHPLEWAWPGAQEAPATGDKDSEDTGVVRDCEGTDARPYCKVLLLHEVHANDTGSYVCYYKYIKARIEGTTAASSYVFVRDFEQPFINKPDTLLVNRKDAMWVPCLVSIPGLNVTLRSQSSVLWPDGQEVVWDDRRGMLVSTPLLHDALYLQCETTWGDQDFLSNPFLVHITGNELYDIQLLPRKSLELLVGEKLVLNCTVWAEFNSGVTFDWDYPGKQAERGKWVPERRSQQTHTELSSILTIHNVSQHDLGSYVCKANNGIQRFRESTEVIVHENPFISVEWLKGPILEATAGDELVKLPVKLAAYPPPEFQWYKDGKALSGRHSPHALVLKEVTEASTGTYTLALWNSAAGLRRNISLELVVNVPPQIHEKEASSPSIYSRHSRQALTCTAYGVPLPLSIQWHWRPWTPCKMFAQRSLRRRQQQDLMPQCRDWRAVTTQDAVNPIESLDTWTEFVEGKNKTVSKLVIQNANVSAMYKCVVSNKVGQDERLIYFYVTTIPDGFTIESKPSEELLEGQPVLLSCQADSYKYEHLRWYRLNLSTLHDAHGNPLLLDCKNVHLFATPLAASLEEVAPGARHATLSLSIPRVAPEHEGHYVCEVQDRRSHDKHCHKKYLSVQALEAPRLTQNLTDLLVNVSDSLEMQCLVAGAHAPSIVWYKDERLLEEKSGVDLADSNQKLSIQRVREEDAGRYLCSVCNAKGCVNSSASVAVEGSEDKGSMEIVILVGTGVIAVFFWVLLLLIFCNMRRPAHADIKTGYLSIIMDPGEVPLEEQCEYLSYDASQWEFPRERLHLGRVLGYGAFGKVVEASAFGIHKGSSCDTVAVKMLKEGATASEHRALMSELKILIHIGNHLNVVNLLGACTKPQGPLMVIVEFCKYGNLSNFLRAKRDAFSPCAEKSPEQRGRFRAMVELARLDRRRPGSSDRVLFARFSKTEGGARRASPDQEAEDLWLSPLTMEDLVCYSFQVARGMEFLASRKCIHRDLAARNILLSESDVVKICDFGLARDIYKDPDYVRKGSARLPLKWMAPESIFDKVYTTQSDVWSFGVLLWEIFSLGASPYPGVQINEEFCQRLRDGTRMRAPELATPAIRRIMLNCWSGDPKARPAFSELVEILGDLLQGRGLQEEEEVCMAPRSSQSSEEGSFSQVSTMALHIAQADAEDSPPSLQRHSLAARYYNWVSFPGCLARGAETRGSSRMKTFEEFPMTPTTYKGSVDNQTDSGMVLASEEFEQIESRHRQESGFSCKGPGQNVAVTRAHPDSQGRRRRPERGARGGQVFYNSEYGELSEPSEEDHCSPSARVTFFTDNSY

MEKK2 = MEKK2 (Homo sapiens (Human), UniProt Q9Y2U5); test: Kinome-wide profiling; type: biochemical; details: read-out: % Residual Activity (mean)
Sequence of MEKK2 (Q9Y2U5 whole entry): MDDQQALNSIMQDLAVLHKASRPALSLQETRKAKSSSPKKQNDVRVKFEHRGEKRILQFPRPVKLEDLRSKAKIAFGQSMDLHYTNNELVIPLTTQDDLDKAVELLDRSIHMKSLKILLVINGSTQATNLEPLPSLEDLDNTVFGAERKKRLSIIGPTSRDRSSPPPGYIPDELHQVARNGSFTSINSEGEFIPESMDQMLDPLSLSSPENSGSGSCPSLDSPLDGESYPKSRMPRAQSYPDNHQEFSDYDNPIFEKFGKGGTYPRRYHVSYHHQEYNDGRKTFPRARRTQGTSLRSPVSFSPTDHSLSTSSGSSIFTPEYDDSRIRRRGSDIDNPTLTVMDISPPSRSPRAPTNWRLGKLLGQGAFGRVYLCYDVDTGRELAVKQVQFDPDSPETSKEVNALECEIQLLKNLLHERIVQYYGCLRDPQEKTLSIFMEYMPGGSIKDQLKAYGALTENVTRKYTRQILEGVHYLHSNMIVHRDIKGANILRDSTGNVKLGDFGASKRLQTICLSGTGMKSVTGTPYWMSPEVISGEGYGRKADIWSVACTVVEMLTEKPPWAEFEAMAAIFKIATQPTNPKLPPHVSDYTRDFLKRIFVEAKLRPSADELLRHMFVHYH

FLT3 = FLT3 (Homo sapiens (Human), UniProt P36888); test: Kinome-wide profiling; type: biochemical; details: read-out: % Residual Activity (mean)
EPHB1 = EPHB1 (Homo sapiens (Human), UniProt P54762); test: Kinome-wide profiling; type: biochemical; details: read-out: % Residual Activity (mean)
p70S6Kb/RPS6KB2 = p70S6Kb/RPS6KB2 (Homo sapiens (Human), UniProt Q9UBS0); test: Kinome-wide profiling; type: biochemical; details: read-out: % Residual Activity (mean)
MLK1/MAP3K9 = MLK1/MAP3K9 (Homo sapiens (Human), UniProt P80192); test: Kinome-wide profiling; type: biochemical; details: read-out: % Residual Activity (mean)
IGF1R = IGF1R (Homo sapiens (Human), UniProt P08069); test: Kinome-wide profiling; type: biochemical; details: read-out: % Residual Activity (mean)
ASK1/MAP3K5 = ASK1/MAP3K5 (Homo sapiens (Human), UniProt Q99683); test: Kinome-wide profiling; type: biochemical; details: read-out: % Residual Activity (mean)
IRS1 and WNT1 = test: Western blot, CDK12 downstream gene expression; type: cell-based; details: SK-Br3 and HCC1954 cell lines, 40 and 200 nM, 24 hours
SGK2 = SGK2 (Homo sapiens (Human), UniProt Q9HBY8); test: Kinome-wide profiling; type: biochemical; details: read-out: % Residual Activity (mean)
Sequence of SGK2 (Q9HBY8 whole entry): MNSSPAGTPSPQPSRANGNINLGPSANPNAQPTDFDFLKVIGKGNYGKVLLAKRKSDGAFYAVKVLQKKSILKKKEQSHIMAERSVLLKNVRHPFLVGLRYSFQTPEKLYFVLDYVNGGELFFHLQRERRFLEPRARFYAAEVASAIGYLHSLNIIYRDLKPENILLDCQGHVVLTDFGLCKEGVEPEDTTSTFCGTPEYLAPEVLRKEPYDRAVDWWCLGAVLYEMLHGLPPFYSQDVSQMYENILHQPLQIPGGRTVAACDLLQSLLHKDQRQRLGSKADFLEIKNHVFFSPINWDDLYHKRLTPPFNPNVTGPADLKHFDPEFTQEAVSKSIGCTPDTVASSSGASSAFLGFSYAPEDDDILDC

IRR/INSRR = IRR/INSRR (Homo sapiens (Human), UniProt P14616); test: Kinome-wide profiling; type: biochemical; details: read-out: % Residual Activity (mean)
KHS/MAP4K5 = KHS/MAP4K5 (Homo sapiens (Human), UniProt Q9Y4K4); test: Kinome-wide profiling; type: biochemical; details: read-out: % Residual Activity (mean)
HCC1954 cells = test: Breast cancer growth inhibitory activity (Cell-titer Glo, 72 h); type: cell-based; details: Homo sapiens, read-out: HCC1954 GI50
Outline: (§1)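 Cells seeded at 2,500 (SK-Br3) or 1,000 (HCC1954) per well and grown 24 h before treatment. Viability read by Cell-titer Glo luminescence; IC50 from titration curve fitting.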

SK-Br3 cells = test: as above; type: cell-based; details: Homo sapiens, SK-BR-3; read-out: SK-Br3 GI50
Outline: as §1

MELK = MELK (Homo sapiens (Human), UniProt Q14680); test: Kinome-wide profiling; type: biochemical; details: read-out: % Residual Activity (mean)
p70S6K/RPS6KB1 = p70S6K/RPS6KB1 (Homo sapiens (Human), UniProt P23443); test: Kinome-wide profiling; type: biochemical; details: read-out: % Residual Activity (mean)
DCAMKL2 = DCAMKL2 (Homo sapiens (Human), UniProt Q8N568); test: Kinome-wide profiling; type: biochemical; details: read-out: % Residual Activity (mean)
ULK3 = ULK3 (Homo sapiens (Human), UniProt Q6PHR2); test: Kinome-wide profiling; type: biochemical; details: read-out: % Residual Activity (mean)
Sequence of ULK3 (Q6PHR2 whole entry): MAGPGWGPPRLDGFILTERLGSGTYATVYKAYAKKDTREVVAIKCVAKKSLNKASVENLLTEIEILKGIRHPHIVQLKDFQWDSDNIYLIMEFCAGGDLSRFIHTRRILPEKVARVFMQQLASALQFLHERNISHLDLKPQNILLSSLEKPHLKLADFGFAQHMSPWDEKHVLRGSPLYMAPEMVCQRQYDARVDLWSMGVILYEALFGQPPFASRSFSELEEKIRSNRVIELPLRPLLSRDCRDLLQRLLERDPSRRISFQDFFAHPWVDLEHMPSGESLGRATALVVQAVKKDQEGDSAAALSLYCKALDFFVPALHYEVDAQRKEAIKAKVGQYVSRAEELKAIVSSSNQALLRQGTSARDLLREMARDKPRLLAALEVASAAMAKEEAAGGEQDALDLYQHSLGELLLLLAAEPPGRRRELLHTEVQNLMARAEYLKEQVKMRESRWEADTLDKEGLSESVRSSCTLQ

CCn1cnc2c(NCc3ccc(-c4ccccn4)nc3)nc(-c3ccc(N)nc3)nc21 [Example 53, N-([2,2′-bipyridin]-5-ylmethyl)-2-(6-aminopyridin-3-yl)-9-ethyl-9H-purin-6-amine]
remaining activity at 10 µM (CDK7/cyclin H): 3.81%
activity at 10 µM (CYP2C19): 68.1%
remaining activity at 10 µM (PKN3/PRK3): 81.5%
remaining activity at 10 µM (P38a/MAPK14): 84.2%
remaining activity at 10 µM (RIPK5): 67.8%
remaining activity at 10 µM (RSK4): 54.2%
remaining activity at 10 µM (TRKC): 54.9%
remaining activity at 10 µM (CDK9/cyclin T2): 1.95%
remaining activity at 10 µM (CDK5/P25): 1.6%
remaining activity at 10 µM (FGR): 54.6%
remaining activity at 10 µM (RIPK4): 97.8%
remaining activity at 10 µM (STK33): 33.5%
remaining activity at 10 µM (CDK14/cyclin Y (PFTK1)): 14%
remaining activity at 10 µM (PDGFRb): 34.7%
remaining activity at 10 µM (PDGFRa): 52.8%
remaining activity at 10 µM (FLT4/VEGFR3): 10%
remaining activity at 10 µM (MEKK2): 90%
remaining activity at 10 µM (FLT3): 40.2%
remaining activity at 10 µM (EPHB1): 13.6%
remaining activity at 10 µM (p70S6Kb/RPS6KB2): 92.2%
remaining activity at 10 µM (MLK1/MAP3K9): 27.9%
remaining activity at 10 µM (IGF1R): 58%
remaining activity at 10 µM (ASK1/MAP3K5): 18.4%
expression of IRS1 and WNT1 (IRS1 and WNT1): inhibited the expression of IRS1 and WNT1
expression of IRS1 and WNT1 (IRS1 and WNT1; listed as Compound 53): strongly suppressed
remaining activity at 10 µM (SGK2): 84.7%
remaining activity at 10 µM (IRR/INSRR): 31.1%
remaining activity at 10 µM (KHS/MAP4K5): 88.3%
GI50 (HCC1954 cells): 0.036 µM
GI50 (SK-Br3 cells): 0.038 µM
remaining activity at 10 µM (MELK): 21.1%
remaining activity at 10 µM (p70S6K/RPS6KB1): 92.1%
remaining activity at 10 µM (DCAMKL2): 55%
remaining activity at 10 µM (ULK3): 91.8%
